Where two headings read alike, the source gives them in different places.
Legend:
human hepatic microsomes [1] = tested on: human hepatic microsomes
[2] = tested on: human placental microsomes
[3] = compared with glyburide; ref [12], [13]; cited from earlier work
[4] = tested on: human placental microsomes; conditions: sulfaphenazole 10 μM, lansoprazole 10 μM, troleandomycin 50 and 200 μM, quinidine 5 μM, 4-methylpyrazole 25 μM
[5] = cited from earlier work
human hepatic microsomes [6] = assay type: in vitro ADME; conditions: ketoconazole 0.5 μM, troleandomycin 50 μM, sulfaphenazole 40 μM; for decrease in formation of M2a: lansoprazole 10 μM; for decrease in the aggregate (total) amount of metabolites formed: α-naphthoflavone 0.05 μM
CYP19 = conditions: ref [27]; cited from earlier work

COc1ccc(Cl)cc1C(=O)NCCc1ccc(S(=O)(=O)NC(=O)N[C@H]2CCC[C@@H](O)C2)cc1 (relative stereo) [M2b, 3-cis-hydroxycyclohexyl glyburide]
amount of metabolite formed as percent of the total metabolites (human hepatic microsomes [1]): 12%
amount of metabolite formed as percent of the total metabolites [2]: 1%
potency in lowering the concentration of glucose [3]: as potent as glyburide

COc1ccc(Cl)cc1C(=O)NCCc1ccc(S(=O)(=O)NC(=O)N[C@@H]2CCCC[C@H]2O)cc1 (relative stereo) [M4, 2-trans-hydroxycyclohexyl glyburide]
amount of metabolite formed as percent of the total metabolites (human hepatic microsomes [1]): 4%
amount of metabolite formed as percent of the total metabolites [2]: 1%

C[C@]12CCC(=O)C(O)=C1CC[C@@H]1[C@@H]2CC[C@]2(C)C(=O)CC[C@@H]12 [4-hydroxyandrostenedione]
decrease in M5 formation ([4]; 4-hydroxyandrostenedione 10 μM, α-naphthoflavone 0.05 μM): 87%

COc1ccc(Cl)cc1C(=O)NCCc1ccc(S(=O)(=O)NC(=O)N[C@H]2CC[C@H](O)CC2)cc1 [M1, 4-trans-hydroxycyclohexyl glyburide]
amount of metabolite formed as percent of the total metabolites [2]: 4%
potency in lowering the concentration of glucose [3]: as potent as glyburide

COc1ccc(Cl)cc1C(=O)NCCc1ccc(S(=O)(=O)NC(=O)N[C@H]2CC[C@@H](O)CC2)cc1 [M2a, 4-cis-hydroxycyclohexyl glyburide]
amount of metabolite formed as percent of the total metabolites (human hepatic microsomes [1]): 11%
amount of metabolite formed as percent of the total metabolites [2]: negligible

COc1ccc(Cl)cc1C(=O)NCCc1ccc(S(=O)(=O)NC(=O)NC2CCCC(O)C2)cc1 (stereo not drawn) [M3, 3-trans-hydroxycyclohexyl glyburide]
amount of metabolite formed as percent of the total metabolites (human hepatic microsomes [1]): 6%
amount of metabolite formed as percent of the total metabolites [2]: 1%

COc1ccccc1Oc1c(NS(=O)(=O)c2ccc(C(C)(C)C)cc2)nc(-c2ncccn2)nc1OCCO [bosentan]
effect of administration on plasma levels of glyburide ([5]; ref [18]): lowered plasma levels of glyburide

CC(=O)N1CCN(c2ccc(OCC3COC(Cn4ccnc4)(c4ccc(Cl)cc4Cl)O3)cc2)CC1 (stereo not drawn) [ketoconazole]
decrease in formation of M1 (human hepatic microsomes [6]): ≤ 20%
decrease in formation of M2b (human hepatic microsomes [6]): ≤ 20%
decrease in formation of M3 (human hepatic microsomes [6]): ≥ 50%
decrease in formation of M4 (human hepatic microsomes [6]): ≥ 50%
decrease in formation of M5 (human hepatic microsomes [6]): 93%
decrease in formation of M2a (human hepatic microsomes [6]): approximately 40%
decrease in the aggregate (total) amount of metabolites formed (human hepatic microsomes [6]): 53%

Cc1c(OCC(F)(F)F)ccnc1C[S+]([O-])c1nc2ccccc2[nH]1 (stereo not drawn) [lansoprazole]
decrease in formation of M2a (human hepatic microsomes [6]): ≈ 20%
effect on the aggregate amount of metabolites [4]: negligible

C=C[C@H]1C[N@@]2CC[C@H]1C[C@@H]2[C@@H](O)c1ccnc2ccc(OC)cc12 [quinidine]
effect on the aggregate amount of metabolites [4]: negligible

CO[C@H]1/C=C/O[C@@]2(C)Oc3c(C)c(O)c4c(O)c(c(/C=N/N5CCN(C)CC5)c(O)c4c3C2=O)NC(=O)/C(C)=C\C=C\[C@H](C)[C@H](O)[C@@H](C)[C@@H](O)[C@@H](C)[C@H](OC(C)=O)[C@@H]1C [rifampin]
effect of administration on plasma levels of glyburide ([5]; ref [30]): lowered plasma levels of glyburide

Nc1ccc(S(=O)(=O)Nc2ccnn2-c2ccccc2)cc1 [sulfaphenazole]
decrease in formation of M1 (human hepatic microsomes [6]): approximately 40%
decrease in formation of M2b (human hepatic microsomes [6]): approximately 40%
decrease in formation of M3 (human hepatic microsomes [6]): ≤ 20%
decrease in formation of M4 (human hepatic microsomes [6]): ≤ 20%
decrease in formation of M5 (human hepatic microsomes [6]): ≤ 20%
decrease in formation of M2a (human hepatic microsomes [6]): approximately 40%
decrease in the aggregate (total) amount of metabolites formed (human hepatic microsomes [6]): 28%
effect on the aggregate amount of metabolites [4]: negligible

O=c1cc(-c2ccccc2)oc2c1ccc1ccccc12 [α-naphthoflavone]
inhibition of CYP19 (CYP19): inhibitor of CYP19
